Data as given in paper PMC8237267 (Journal of Medicinal Chemistry, 2021).
“Also recorded” adds a separate entry of the source.

Legend:
HDAC3 = molecular target: T1, HDAC3 (Homo sapiens, UniProt O15379); assay: HDAC EMSA activity assay (Nanosyn); type: biochemical; settings: read-out: IC50 HDAC3
T1 construct: The full-length human HDACs were recombinantly expressed and purified from SF9 insect cells; host or cells: SF9 insect cells

MRC-9 = assay: Cytotoxicity assay (Cell Titer-Blue, 72 h); type: cell-based; settings: MRC-9 (healthy fibroblasts); read-out: In cellulo IC50 MRC-9
[1] = Glutathione stability / reactivity assay; type: in vitro ADME; settings: GSH adduct formation by LC/MS/MS; KT-531 up to 24 h
Description: Although covalent modification of HDAC6 was not observed (Figure S2), the PFBS group is susceptible to nucleophilic aromatic substitution by biological nucleophiles. A previously described high-throughput in vitro glutathione-reactivity assay was conducted, where compounds were incubated in the presence of glutathione (GSH) and the formation of a GSH-compound adduct was monitored over time via LC/MS/MS.[50]
Compound was added to PBS and 5 mM GSH to reach a final concentration of 5 μM. […] Samples were vortexed and centrifuged for 45 min at 3220g. Aliquots were diluted by ultrapure water, and used for LC/MS/MS analysis. Peak area ratios were determined and percent compounds remaining was calculated by the following equation: [drawing 1] where peak area ratio (t min) is the peak area ratio of control and test compounds at t min; peak area ratio0min is the peak area ratio of control and test compounds at the zero time point. In vitro half-life (t1/2) = −(0.693/k).

[2] = Permeability by lipid-PAMPA; type: in vitro ADME; settings: lecithin/dodecane, PBS pH 7.4, 16 h
Description: A 1.8% solution (w/v) of lecithin in dodecane was added to each acceptor plate well (top), followed by application of the artificial membrane and addition of 300 μL of PBS (pH 7.4) solution to each well of the acceptor plate. Compounds were added to the donor plate and incubated at 25 °C, 60 rpm for 16 h. After incubation, aliquots of 50 μL from each acceptor well and donor plate were transferred into a 96-well plate, vortexed at 750 rpm for 100 s and centrifuged at 3220g for 20 min. Compound concentrations and effective permeability (Pe) were determined by LC/MS/MS.

HDAC6 [3] = molecular target: T2, HDAC6 (Homo sapiens, UniProt Q9UBN7); assay: Determination of Ki (Kon kinetics); type: biochemical; settings: time-dependent inhibition Kon experiment
T2 sequence (Q9UBN7 1-1215): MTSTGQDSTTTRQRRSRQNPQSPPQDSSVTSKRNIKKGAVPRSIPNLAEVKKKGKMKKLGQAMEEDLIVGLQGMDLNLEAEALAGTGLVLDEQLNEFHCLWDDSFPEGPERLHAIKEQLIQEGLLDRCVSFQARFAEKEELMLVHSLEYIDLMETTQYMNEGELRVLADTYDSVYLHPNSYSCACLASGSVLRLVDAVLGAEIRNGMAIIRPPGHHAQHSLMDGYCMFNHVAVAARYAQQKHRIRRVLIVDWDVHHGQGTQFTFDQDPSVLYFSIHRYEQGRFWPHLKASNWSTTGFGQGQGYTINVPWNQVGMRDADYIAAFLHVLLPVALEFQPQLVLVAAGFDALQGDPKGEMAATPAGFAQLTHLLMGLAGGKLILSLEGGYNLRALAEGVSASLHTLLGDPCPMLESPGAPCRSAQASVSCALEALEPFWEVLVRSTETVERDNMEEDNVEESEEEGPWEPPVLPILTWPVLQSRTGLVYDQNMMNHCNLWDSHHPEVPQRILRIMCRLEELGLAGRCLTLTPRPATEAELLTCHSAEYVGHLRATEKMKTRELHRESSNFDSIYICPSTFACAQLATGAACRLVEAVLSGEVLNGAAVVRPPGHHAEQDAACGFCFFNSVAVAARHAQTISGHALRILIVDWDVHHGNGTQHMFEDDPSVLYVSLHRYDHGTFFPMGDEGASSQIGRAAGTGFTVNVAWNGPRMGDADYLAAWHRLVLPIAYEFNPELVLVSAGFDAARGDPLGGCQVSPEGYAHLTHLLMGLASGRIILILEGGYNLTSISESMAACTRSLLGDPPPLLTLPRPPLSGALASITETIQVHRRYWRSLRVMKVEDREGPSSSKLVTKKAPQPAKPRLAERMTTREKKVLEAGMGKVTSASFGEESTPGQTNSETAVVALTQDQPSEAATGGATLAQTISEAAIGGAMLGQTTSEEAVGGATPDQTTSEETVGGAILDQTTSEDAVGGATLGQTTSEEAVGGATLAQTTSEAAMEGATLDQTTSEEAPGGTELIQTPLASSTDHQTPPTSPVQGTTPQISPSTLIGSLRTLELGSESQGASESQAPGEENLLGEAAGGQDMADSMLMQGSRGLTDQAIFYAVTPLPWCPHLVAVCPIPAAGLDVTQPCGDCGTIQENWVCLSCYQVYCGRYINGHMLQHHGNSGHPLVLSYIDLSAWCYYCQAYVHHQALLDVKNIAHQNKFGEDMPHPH
Description: Serial dilutions of compound were mixed with 3 nM HDAC6 enzyme and substrate peptide in assay buffer. Progress curves were acquired without preincubation for ∼5 h on a Labchip3000 instrument. Progress curves in the presence of compound were fit with the following equation: ((A + (Vs × x)) + (((Vo – Vs) × (1 – exp((−1 × Kobs) × t)))/Kobs)). To determine observed rate of inhibition, Vo was locked to that in control (Vi, DMSO only). Fractional steady state velocity (Vs/Vi) and Kobs values were plotted against [compound] to determine Ki and residence time.

MV4-11 cells = assay: FACS apoptosis detection assay (Annexin V/PI); type: cell-based; settings: MV4-11, 18 h, listed as KT-531
Description: MV4-11 cells were prepared, dosed, and washed with cold 1× PBS. The resulting cell pellets were resuspended in 1× Binding Buffer (1 × 10^6 cell/mL) from the FITC Annexin V Apoptosis Detection Kit I (BD Pharmingen). Subsequently, the dyes annexin V (5 μL) and propidium iodide (PI, 5 μL) were added to 2.5 × 10^5 cells (250 μL). The suspension was thoroughly mixed and incubated in the dark for 15 min. Following the addition of 250 μL of 1× binding buffer, the cells were analyzed by flow cytometry within 1 h using the Cytoflex S system (Beckman Coulter).

HDAC6 [4] = molecular target: T2, HDAC6; assay: HDAC EMSA activity assay (Nanosyn); type: biochemical; design: The full-length human HDACs were recombinantly expressed and purified from SF9 insect cells; host or cells: SF9 insect cells; settings: EMSA (Nanosyn); read-out: IC50 HDAC6

T1 sequence (O15379 whole entry): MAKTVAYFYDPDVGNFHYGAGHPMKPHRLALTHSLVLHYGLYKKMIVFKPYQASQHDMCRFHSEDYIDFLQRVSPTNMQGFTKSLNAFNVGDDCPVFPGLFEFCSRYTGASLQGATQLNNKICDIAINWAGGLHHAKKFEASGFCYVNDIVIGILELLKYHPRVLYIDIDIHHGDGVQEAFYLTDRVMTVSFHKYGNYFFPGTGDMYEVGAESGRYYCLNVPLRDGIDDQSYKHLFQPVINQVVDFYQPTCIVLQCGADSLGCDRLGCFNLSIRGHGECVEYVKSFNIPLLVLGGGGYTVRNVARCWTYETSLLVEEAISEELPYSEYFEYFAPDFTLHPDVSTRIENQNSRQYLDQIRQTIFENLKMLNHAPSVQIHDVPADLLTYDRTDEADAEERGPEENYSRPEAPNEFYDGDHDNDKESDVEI
T1 sequence (Q9Y618 395-489 partner limits assumed): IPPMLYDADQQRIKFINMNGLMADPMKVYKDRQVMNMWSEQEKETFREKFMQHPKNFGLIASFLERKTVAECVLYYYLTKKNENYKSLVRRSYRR

Question: For O=C(NO)c1ccc(CN(C2CC2)S(=O)(=O)c2cc(F)c(F)c(F)c2F)cc1 [Compound 14, 4-(((N-Cyclopropyl-2,3,4,5-tetrafluorophenyl)sulfonamido)methyl)-N-hydroxybenzamide], which IC50 (HDAC3) is on record?
Answer: > 1000 nM

Question: And the IC50 (MRC-9)?
Answer: > 20000 nM

Question: What about the “reactivity with glutathione” value [1] of the same molecule?
Answer: no discernible reactivity with GSH; also recorded: no discernible SNAr reaction with GSH

Question: And the “PAMPA -Log Pe” value ([2]; listed as 14 (KT-531))?
Answer: 5.44 ± 0.06

Question: What about the “PAMPA -Log Pe” value ([2]; listed as KT-531) of the same molecule?
Answer: 5.44

Question: What about the Ki (HDAC6 [3]) of the same molecule?
Answer: 17.3 nM

Question: And the “Early Apoptosis” value (MV4-11 cells; 0.5 μM)?
Answer: 15%

Question: What about the “Late Apoptosis” value (MV4-11 cells; 1 μM) of the same molecule?
Answer: 22%

Question: What about the “Healthy (nonapoptotic)” value (MV4-11 cells; 2 μM) of the same molecule?
Answer: 8%

Question: What about the IC50 (HDAC6 [4]) of the same molecule?
Answer: 8.5 nM
